Reference: PubChem BioAssay (NCI)
Several values for one entry are separate records, joined by “and”; a condition that tells them apart may be missing. Identical values can stand only once.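 Each compound was tested at five concentrations against cells in 96-well plates for 48 hours. GI50 is the concentration that inhibits growth by half. Definition used: TGI = concentration required for complete inhibition of growth.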

Columns and labels:
Assay in all cases: NCI tumour cell line growth inhibition, 48 h
SW-620 colon = system: SW-620 colon
NCI-H460 lung = system: NCI-H460 lung
SK-MEL-5 melanoma = system: SK-MEL-5 melanoma
RPMI-8226 leukemia = system: RPMI-8226 leukemia
OVCAR-3 ovarian = system: OVCAR-3 ovarian
TK-10 renal = system: TK-10 renal
SNB-75 CNS = system: SNB-75 CNS
HOP-62 NSCLC = system: HOP-62 NSCLC
OVCAR-8 ovarian = system: OVCAR-8 ovarian
M14 melanoma = system: M14 melanoma

| Compound | GI50 (SW-620 colon) | TGI (SW-620 colon) | GI50 (NCI-H460 lung) | TGI (NCI-H460 lung) | GI50 (SK-MEL-5 melanoma) [nM] | TGI (SK-MEL-5 melanoma) [µM] | GI50 (RPMI-8226 leukemia) [nM] | TGI (RPMI-8226 leukemia) [µM] | GI50 (OVCAR-3 ovarian) | TGI (OVCAR-3 ovarian) | GI50 (TK-10 renal) [µM] | TGI (TK-10 renal) [µM] | GI50 (SNB-75 CNS) | TGI (SNB-75 CNS) | GI50 (HOP-62 NSCLC) | TGI (HOP-62 NSCLC) | GI50 (OVCAR-8 ovarian) [µM] | TGI (OVCAR-8 ovarian) [µM] | GI50 (M14 melanoma) [nM] | TGI (M14 melanoma) [µM] |
| --- | --- | --- | --- | --- | --- | --- | --- | --- | --- | --- | --- | --- | --- | --- | --- | --- | --- | --- | --- | --- |
| CCCCCCCCCCCCCCCC[N+](C)(C)C | 239 nM and 1310 nM | 0.859 µM and 2.97 µM | 204 nM and 1240 nM | 0.412 µM and 2.81 µM | 1560 | 2.95 | 142 | 0.792 | 182 nM and 1160 nM | 0.519 µM and 2.81 µM | 1.11 | 2.81 | 142 nM and 1360 nM | 0.396 µM and 3.72 µM | 198 nM and 1330 nM | 0.54 µM and 3.07 µM | 0.212 | 0.536 | 1170 | 2.86 |
| CN1CCN(c2ccc3nc(-c4ccc5nc(-c6ccc(C(F)(F)F)cc6)[nH]c5c4)[nH]c3c2)CC1 | 1470 nM | 3.09 µM | 1900 nM | 3.55 µM | 3360 | 15.5 | 2060 | 4.51 | 1580 nM | 3.1 µM |  |  | 1870 nM | 9.97 µM | 1630 nM | 3.42 µM | 2.02 | 4.7 | 1360 | 2.89 |
| C/C(=C\c1ccccc1)C(O)S(=O)(=O)O (stereo not given) |  | > 100 µM |  | > 100 µM |  | > 100 |  | > 100 |  | > 100 µM |  | > 100 |  | > 100 µM |  | > 100 µM |  | > 100 |  | > 100 |
| S=C1SC2(CCCCCC2)NC2=C1CCCCC2 |  | > 100 µM |  | 77.9 µM |  | 43.2 |  | 69.3 |  | > 100 µM |  | > 100 |  | 81.8 µM |  | > 100 µM |  | > 100 |  | > 100 |
| O=C(O)C1(C(=O)O)CCN(S(=O)(=O)c2ccccc2)CC1 |  | > 100 µM |  | > 100 µM |  | > 100 |  | > 100 |  | > 100 µM |  | > 100 |  | > 100 µM |  | > 100 µM |  | > 100 |  | > 100 |
| CC(=O)N1C(=O)C(=O)c2cc(Cl)ccc21 |  | > 100 µM |  | > 100 µM |  | > 100 |  | > 100 |  | > 100 µM |  | > 100 |  | > 100 µM |  |  |  | > 100 |  | > 100 |
| COc1cc([N+](=O)[O-])c(S(=O)(=O)O)cc1-n1nc(-c2ccccc2)n[n+]1-c1cc(S(=O)(=O)[O-])c([N+](=O)[O-])cc1OC |  | > 100 µM |  | > 100 µM |  | > 100 |  | > 100 |  | > 100 µM |  |  |  | > 100 µM |  | > 100 µM |  | > 100 |  | > 100 |
| COc1cccc(NC(=O)c2ccc(C(F)(F)F)nc2Nc2ccc(Cl)cc2C)c1 | 14500 nM | 28.7 µM | 9010 nM | 24.1 µM | 14600 | 27.8 | 5540 | 28.4 | 4690 nM | 19.9 µM |  |  | 12300 nM | 25.5 µM | 17400 nM | 32.1 µM | 11.8 | 24.1 | 16900 | 32.5 |
| CCCN(CCC)c1ccc(C=O)c(OC)c1 | 22900 nM | > 100 µM | 24000 nM | > 100 µM | 14500 | 29.3 | 58600 | > 100 | 15100 nM | 33.9 µM | 24.2 | 86.1 | 16400 nM | 95.9 µM | 32000 nM | > 100 µM | 27.5 | > 100 |  |  |
| Cc1ccc(S(=O)(=O)NC(C)C(=O)O)cc1 (stereo not given) |  | > 100 µM |  | > 100 µM |  | > 100 |  | > 100 |  | > 100 µM |  | > 100 |  | > 100 µM |  |  |  | > 100 |  | > 100 |
| COc1cc2c(c(OC)c1OC)C(=O)c1c-2n(CCCN)c(=O)c2cc([N+](=O)[O-])ccc12 | 310 nM | 3.3 µM | 562 nM |  | 1530 | 3.24 | 1210 | 3.32 | 1060 nM | 2.4 µM | 0.616 | 1.3 | 1410 nM | 3.31 µM | 958 nM | 2.6 µM |  |  | 1350 | 2.82 |
| [O-]c1c(-c2ccccc2)[se]c(-c2ccccc2)[n+]1-c1ccccc1 |  | 34.2 µM |  | 38.7 µM |  | 26.5 |  | > 100 |  | 21.9 µM |  | 20.6 |  | 22 µM |  |  |  | 13.7 |  | 17.6 |
| Cc1cc2cc(Oc3ccnc(Nc4cccc(CS(=O)(=O)NCCN(C)C)c4)n3)ccc2[nH]1 | 7990 nM | 23.5 µM | 4740 nM | 18.8 µM | 1860 | 3.5 | 2990 | 11.5 | 4300 nM | 15.8 µM | 12.5 | 25.3 | 1310 nM | 4.89 µM | 7000 nM | 21.6 µM | 15.8 | 36.1 |  |  |
